Data taken from ChEMBL document CHEMBL1201862, “PubChem BioAssay data set” (2004).
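Assay format: 96-well plates, 48-hour exposure. Here, GI50 denotes the concentration required for 50% inhibition of growth.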 Active and inactive are the calls of the source. Rule as the data show it: active = GI50 up to about 1.1 µM and inactive = higher. *1 amine or outer side, *2 acyl side, *3 side chain or, on linkers, in order; H or OH if unused. Where a SMILES comes first, the peptide text is derived from it. [ ]: non-standard residue; d: D form. The star is where a group is joined. ξ: configuration not given here. X53 = CC(C)C[C@H](N[*:1])C1=N[C@H](C(=O)[*:2])CS1; Ile(3ξ) = CCC(C)[C@H](N)C(=O)O; Allyl(1,1-Me2) = C=CC(C)(C)*

How the values were obtained:
Assay in all cases: DTP human tumour cell line panel, 48 h
786-0 = system: 786-0
COLO 205 = system: COLO 205
HCC 2998 = system: HCC 2998
HCT-116 = system: HCT-116
HL-60 = system: HL-60
HT-29 = system: HT-29
K562 = system: K562
MDA-N = system: MDA-N
OVCAR-5 = system: OVCAR-5
RPMI-8226 = system: RPMI-8226
SF-268 = system: SF-268
SF-539 = system: SF-539
SNB-75 = system: SNB-75
SR = system: SR
SW-620 = system: SW-620
TK-10 = system: TK-10
UACC-62 = system: UACC-62

Row | SMILES | GI50 (786-0) | GI50 (COLO 205) | GI50 (HCC 2998) | GI50 (HCT-116) | GI50 (HL-60) | GI50 (HT-29) | GI50 (K562) | GI50 (MDA-N) | GI50 (OVCAR-5) | GI50 (RPMI-8226) | GI50 (SF-268) | GI50 (SF-539) | GI50 (SNB-75) | GI50 (SR) | GI50 (SW-620) | GI50 (TK-10) | GI50 (UACC-62)
1 | Nc1nc2cc3nc(N)c(N)nc3cc2nc1N | > 100 µM (inactive) | > 100 µM (inactive) | > 100 µM (inactive) | 84.3 µM (inactive) | 30.1 µM (inactive) | > 100 µM (inactive) | > 10 µM (inactive) | > 100 µM (inactive) | > 100 µM (inactive) | > 100 µM (inactive) | > 100 µM (inactive) | > 100 µM (inactive) | > 100 µM (inactive) | 71.8 µM (inactive) | > 100 µM (inactive) | 80.5 µM (inactive) | > 100 µM (inactive)
2 | NC(=S)C1=C(N)Oc2c(c(=O)oc3ccccc23)C1c1ccc(Br)cc1 (stereo unspecified) | > 100 µM (inactive) | > 100 µM (inactive) | > 100 µM (inactive) | > 100 µM (inactive) | 50.8 µM (inactive) | > 100 µM (inactive) | 42.1 µM (inactive) | > 100 µM (inactive) | > 100 µM (inactive) | – | > 100 µM (inactive) | > 100 µM (inactive) | 82.6 µM (inactive) | 1.61 µM (inactive) | > 100 µM (inactive) | > 100 µM (inactive) | > 100 µM (inactive)
3 | CC1(C)N=c2c(ncn2CCCO)=C(C(N)=O)N1 | > 100 µM (inactive) | > 100 µM (inactive) | > 100 µM (inactive) | > 100 µM (inactive) | > 100 µM (inactive) | > 100 µM (inactive) | > 100 µM (inactive) | > 100 µM (inactive) | > 100 µM (inactive) | > 100 µM (inactive) | > 100 µM (inactive) | > 100 µM (inactive) | 60.4 µM (inactive) | > 100 µM (inactive) | > 100 µM (inactive) | > 100 µM (inactive) | > 100 µM (inactive)
4 | COc1c(Sc2c(SCSc3cnc4ccccc4c3Sc3cnc4ccccc4c3OC)cnc3ccccc23)cnc2ccccc12 | > 100 µM (inactive) | > 100 µM (inactive) | > 100 µM (inactive) | 46.5 µM (inactive) | 1.59 µM (inactive) | 78.7 µM (inactive) | – | 77.8 µM (inactive) | > 100 µM (inactive) | 9.2 µM (inactive) | > 100 µM (inactive) | > 100 µM (inactive) | 21.7 µM (inactive) | 21.8 µM (inactive) | 31.6 µM (inactive) | 38.6 µM (inactive) | 39.1 µM (inactive)
5 | CCN(CCCl)c1cc(CN(C)C)cc(NC(=O)c2cc(C(=O)Nc3cc(CN(C)C)cc(N(CC)CCCl)c3)n(C)n2)c1 | < 0.01 µM (active) | 0.721 µM (active) | 0.755 µM (active) | 0.227 µM (active) | 0.0115 µM (active) | 0.136 µM (active) | 0.124 µM (active) | 1.22 µM (inactive) | 2.32 µM (inactive) | 0.24 µM (active) | 0.065 µM (active) | 0.338 µM (active) | 0.271 µM (active) | 0.0119 µM (active) | 0.0962 µM (active) | 2.69 µM (inactive) | 0.219 µM (active)
6 | S=C1NCCN1C(=S)NC1CCCCC1 | 37.9 µM (inactive) | 27 µM (inactive) | 20.9 µM (inactive) | 30.3 µM (inactive) | 40.7 µM (inactive) | 21.8 µM (inactive) | 36.8 µM (inactive) | 36.9 µM (inactive) | > 100 µM (inactive) | 30 µM (inactive) | 34.7 µM (inactive) | 21 µM (inactive) | 19 µM (inactive) | 35.8 µM (inactive) | 46 µM (inactive) | 27.6 µM (inactive) | 43.7 µM (inactive)
7 | COc1ccc(C(=O)/C=C/c2ccc(OCC(=O)O)cc2)cc1 | 60.1 µM (inactive) | 70.3 µM (inactive) | 27.7 µM (inactive) | 47.1 µM (inactive) | > 100 µM (inactive) | > 100 µM (inactive) | 39.4 µM (inactive) | 34.4 µM (inactive) | > 100 µM (inactive) | > 100 µM (inactive) | 43.9 µM (inactive) | 46.6 µM (inactive) | > 100 µM (inactive) | 13 µM (inactive) | 41.5 µM (inactive) | > 100 µM (inactive) | 52.1 µM (inactive)
8 | O=c1cc(NNc2ccccc2)[nH]c(=S)[nH]1 | 4.9 µM (inactive) | 49 µM (inactive) | 17.4 µM (inactive) | 23.2 µM (inactive) | 25.1 µM (inactive) | 37.8 µM (inactive) | 32.4 µM (inactive) | 40.6 µM (inactive) | > 100 µM (inactive) | 10.5 µM (inactive) | 32.7 µM (inactive) | 50.2 µM (inactive) | > 100 µM (inactive) | 22.5 µM (inactive) | 20.5 µM (inactive) | 24.9 µM (inactive) | 63.1 µM (inactive)
9 | CC(C)N1CCN(c2ccc(OCC3COC(Cn4cncn4)(c4ccc(Cl)cc4Cl)O3)cc2)CC1 (stereo unspecified) [TERCONAZOLE] | 4.06 µM (inactive) | 1.9 µM (inactive) | 9.18 µM (inactive) | 11.2 µM (inactive) | 15.4 µM (inactive) | 3.62 µM (inactive) | 3.47 µM (inactive) | 4.86 µM (inactive) | 15 µM (inactive) | 10.5 µM (inactive) | 12.3 µM (inactive) | 13.3 µM (inactive) | 12.8 µM (inactive) | 3.33 µM (inactive) | 15.3 µM (inactive) | 9.62 µM (inactive) | 2.34 µM (inactive)
10 | Brc1ccc(-c2[nH]c3ccccc3c2/N=N\c2ccccc2)cc1 | 18.2 µM (inactive) | 15 µM (inactive) | 16.8 µM (inactive) | 19 µM (inactive) | 26.8 µM (inactive) | – | 23.2 µM (inactive) | 16.6 µM (inactive) | 18.7 µM (inactive) | 21.7 µM (inactive) | 17.9 µM (inactive) | 17.4 µM (inactive) | 19.5 µM (inactive) | 15.3 µM (inactive) | 17.5 µM (inactive) | 21.1 µM (inactive) | 19.8 µM (inactive)
11 | N#Cc1c(NC(=S)Nc2ccccc2)sc2c1CCCC2 | > 100 µM (inactive) | > 100 µM (inactive) | > 100 µM (inactive) | > 100 µM (inactive) | > 100 µM (inactive) | > 100 µM (inactive) | > 100 µM (inactive) | > 100 µM (inactive) | > 100 µM (inactive) | > 100 µM (inactive) | > 100 µM (inactive) | – | > 100 µM (inactive) | > 100 µM (inactive) | > 100 µM (inactive) | > 100 µM (inactive) | 94.2 µM (inactive)
12 | COc1ccc(C(=O)/C=C/c2ccc(OCCCCCCCCCCOc3ccc(/C=C/C(=O)c4ccc(OC)cc4)cc3)cc2)cc1 | > 100 µM (inactive) | > 100 µM (inactive) | > 100 µM (inactive) | > 100 µM (inactive) | > 100 µM (inactive) | > 100 µM (inactive) | > 100 µM (inactive) | > 100 µM (inactive) | > 100 µM (inactive) | > 100 µM (inactive) | > 100 µM (inactive) | > 100 µM (inactive) | 69.7 µM (inactive) | > 100 µM (inactive) | > 100 µM (inactive) | > 100 µM (inactive) | > 100 µM (inactive)
13 | C/C(=N/NC(=S)N1CC2CCC(CC2)C1)c1cnccn1 | < 0.01 µM (active) | < 0.01 µM (active) | 0.218 µM (active) | < 0.01 µM (active) | < 0.01 µM (active) | < 0.01 µM (active) | < 0.01 µM (active) | 0.37 µM (active) | 0.255 µM (active) | < 0.01 µM (active) | < 0.01 µM (active) | 0.109 µM (active) | 0.828 µM (active) | < 0.01 µM (active) | < 0.01 µM (active) | 0.67 µM (active) | < 0.023 µM (active)
14 | O=[N+]([O-])c1ccc2oc(=N/c3ccccc3)/c(=N\c3ccccc3)[nH]c2c1 | 22.6 µM (inactive) | > 100 µM (inactive) | 83.6 µM (inactive) | 48.2 µM (inactive) | > 100 µM (inactive) | 87.3 µM (inactive) | > 100 µM (inactive) | 54.5 µM (inactive) | > 100 µM (inactive) | > 100 µM (inactive) | 54.3 µM (inactive) | 39.7 µM (inactive) | 18 µM (inactive) | > 100 µM (inactive) | > 100 µM (inactive) | 26.8 µM (inactive) | 58.7 µM (inactive)
15 | COC(=O)c1c2c(cc3c1CC1(Cc4ccccc4C1=O)C3)CCC2 (stereo unspecified) | 25.2 µM (inactive) | 3.52 µM (inactive) | 36.6 µM (inactive) | 26.6 µM (inactive) | 16 µM (inactive) | 17.1 µM (inactive) | 8.34 µM (inactive) | 8.55 µM (inactive) | > 100 µM (inactive) | 18.6 µM (inactive) | 48.8 µM (inactive) | 71.1 µM (inactive) | 19.4 µM (inactive) | 15.6 µM (inactive) | 31.8 µM (inactive) | 51.3 µM (inactive) | –
16 | C=CC(C)(C)OC[C@@H]1NC(=O)CNC(=O)[C@@H]2CCCN2C(=O)[C@H](C(C)CC)NC(=O)[C@@H]2CSC(=N2)[C@H](CC(C)C)NC1=O (stereo partly specified) (cyclo(GS(Allyl(1,1-Me2))[X53][Ile(3ξ)]P)) | > 100 µM (inactive) | > 100 µM (inactive) | 83 µM (inactive) | 56.5 µM (inactive) | 29.2 µM (inactive) | 84.7 µM (inactive) | 41.7 µM (inactive) | > 100 µM (inactive) | > 100 µM (inactive) | 18.6 µM (inactive) | 68.4 µM (inactive) | > 100 µM (inactive) | 34.5 µM (inactive) | 64.4 µM (inactive) | – | > 100 µM (inactive) | 72.3 µM (inactive)
